Assay results taken from patent US8263598B2, “Substituted sulfonamide compounds” (Gruenenthal GmbH, priority 2008, dated 2012).

Columns and labels:
[1] = molecular target: T1, B1R receptor of rats (rB1R) (Rattus norvegicus, UniProt P97583); assay: FLIPR Ca2+ assay on rat bradykinin 1 receptor (CHO K1 rB1R cells); format: cell-based; conditions: test substance 10 μM; CHO K1 cells with B1R gene of rats; agonist Des-Arg9-bradykinin 100 nM; compared to maximum achievable inhibition
T1 construct: host or cells: CHO K1 cells
T1 sequence (P97583 1-337): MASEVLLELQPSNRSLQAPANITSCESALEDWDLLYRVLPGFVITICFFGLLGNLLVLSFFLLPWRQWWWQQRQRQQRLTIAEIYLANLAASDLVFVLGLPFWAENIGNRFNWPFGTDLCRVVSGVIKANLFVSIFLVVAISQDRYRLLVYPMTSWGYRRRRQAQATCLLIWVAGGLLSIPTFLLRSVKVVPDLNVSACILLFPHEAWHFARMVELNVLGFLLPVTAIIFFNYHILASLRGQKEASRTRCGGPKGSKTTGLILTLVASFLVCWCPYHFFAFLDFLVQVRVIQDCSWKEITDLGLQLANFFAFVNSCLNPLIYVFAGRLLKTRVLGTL
Summary of the method: (§1)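 CHO K1 cells stably expressing human or rat B1R were loaded with Fluo-4 and tested at 10 μM compound. Ca²⁺ signal was read in FLIPR as % activation versus agonist. After 10 min, agonist was added (hB1R: Lys-Des-Arg9-bradykinin 0.5 nM; rB1R: Des-Arg9-bradykinin 100 nM), and % inhibition was taken relative to maximum achievable inhibition.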

[2] = molecular target: T2, human B1R receptor (hB1R) (Homo sapiens, UniProt P46663); assay: FLIPR Ca2+ assay on human bradykinin 1 receptor (CHO K1 hB1R cells); format: cell-based; conditions: test substance 10 μM; CHO K1 cells with human B1R gene; agonist Lys-Des-Arg9-bradykinin 0.5 nM; compared to maximum achievable inhibition
T2 construct: host or cells: CHO K1 cells
T2 sequence (P46663 1-353): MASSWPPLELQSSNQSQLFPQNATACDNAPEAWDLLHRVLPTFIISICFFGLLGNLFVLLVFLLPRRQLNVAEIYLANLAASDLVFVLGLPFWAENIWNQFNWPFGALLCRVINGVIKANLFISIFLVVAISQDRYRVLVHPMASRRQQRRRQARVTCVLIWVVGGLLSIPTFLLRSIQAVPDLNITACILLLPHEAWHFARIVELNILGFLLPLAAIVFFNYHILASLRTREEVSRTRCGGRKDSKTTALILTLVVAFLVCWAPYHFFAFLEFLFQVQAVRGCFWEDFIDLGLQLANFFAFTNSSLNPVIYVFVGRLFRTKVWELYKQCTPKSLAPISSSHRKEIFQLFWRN
Summary of the method: as §1

Row | Structure (SMILES) | inhibition at 10 µM [1] | inhibition at 10 µM [2]
1 | COc1cc(C)c(S(=O)(=O)N(C)CCOCC(=O)N2CCn3cccc3C2C(C)C)c(C)c1 (stereo not shown) [Example 137, N-(2-(2-(1-isopropyl-3,4-dihydropyrrolo[1,2-a]pyrazin-2(1H)-yl)-2-oxoethoxy)ethyl)-4-methoxy-N,2,6-trimethylbenzenesulfonamide] | 102% | 104%
2 | COc1cc(C)c(S(=O)(=O)N(C)CCOCC(=O)N2CCn3c(CN(C)C)ccc3C2c2ccccc2)c(C)c1C (stereo not shown) [Example 1, N-(2-(2-(6-((dimethylamino)methyl)-1-phenyl-3,4-dihydropyrrolo[1,2-a]pyrazin-2(1H)-yl)-2-oxoethoxy)ethyl)-4-methoxy-N,2,3,6-tetramethylbenzene-sulfonamide] | 58% | 89%
3 | CCC1c2cccn2CCN1C(=O)COCCN(C)S(=O)(=O)c1cc(C)c(OC)c(C)c1C (stereo not shown) [Example 114, N-(2-(2-(1-ethyl-3,4-dihydropyrrolo[1,2-a]pyrazin-2(1H)-yl)-2-oxoethoxy)ethyl)-4-methoxy-N,2,3,5-tetramethylbenzenesulfonamide] | 42% | 80%
4 | Cc1cc(C)c(S(=O)(=O)N(C)CCOCC(=O)N2CCn3cccc3C2c2ccccc2)c(C)c1 (stereo not shown) [Example 70, N,2,4,6-tetramethyl-N-(2-(2-oxo-2-(1-phenyl-3,4-dihydropyrrolo[1,2-a]pyrazin-2(1H)-yl)ethoxy)ethyl)benzenesulfonamide] | 99% | 101%
5 | COc1cc(C)c(S(=O)(=O)N(CCOCC(=O)N2CCn3ccnc3C2)CC(C)C)c(C)c1C [Example 21, N-(2-(2-(5,6-dihydroimidazo[1,2-a]pyrazin-7(8H)-yl)-2-oxoethoxy)ethyl)-N-isobutyl-4-methoxy-2,3,6-trimethylbenzenesulfonamide] | 100% | 31%
6 | COc1cc(C)c(S(=O)(=O)N(C)CCOCC(=O)N2CCn3c(CCc4cccnc4)ccc3C2)c(C)c1 [Example 170, 4-Methoxy-N,2,6-trimethyl-N-(2-(2-oxo-2-(6-(2-(pyridin-3-yl)ethyl)-3,4-dihydropyrrolo[1,2-a]pyrazin-2(1H)-yl)ethoxy)ethyl)benzenesulfonamide] | 98% | 99%

Now from value to compound:

Row | inhibition at 10 µM [1] | inhibition at 10 µM [2] | Structure (SMILES)
7 | 95% | 34% | COc1cc(C)c(S(=O)(=O)N(CCOCC(=O)N2CCn3cccc3C2C)Cc2ccccc2)c(C)c1C (stereo not shown) [Example 40, N-benzyl-4-methoxy-2,3,6-trimethyl-N-(2-(2-(1-methyl-3,4-dihydropyrrolo[1,2-a]pyrazin-2(1H)-yl)-2-oxoethoxy)ethyl)benzenesulfonamide]
8 | 98% | 82% | COc1cc(C)c(S(=O)(=O)N(CCOCC(=O)N2CCn3cccc3C2C(C)(C)C)CC(C)C)c(C)c1C (stereo not shown) [Example 18, N-(2-(2-(1-tert-butyl-3,4-dihydropyrrolo[1,2-a]pyrazin-2(1H)-yl)-2-oxoethoxy)ethyl)-N-isobutyl-4-methoxy-2,3,6-trimethylbenzenesulfonamide]
9 | 102% | 102% | CCC1c2cccn2CCN1C(=O)COCCN(C)S(=O)(=O)c1c(C)cc(OC)c(C)c1C (stereo not shown) [Example 152, N-(2-(2-(1-ethyl-3,4-dihydropyrrolo[1,2-a]pyrazin-2(1H)-yl)-2-oxoethoxy)ethyl)-4-methoxy-N,2,3,6-tetramethylbenzenesulfonamide]
10 | 102% | 96% | COc1cc(C)c(S(=O)(=O)N(CCOCC(=O)N2CCn3cccc3C2C(C)C)CC(C)C)c(C)c1C (stereo not shown) [Example 102, N-isobutyl-N-(2-(2-(1-isopropyl-3,4-dihydropyrrolo[1,2-a]pyrazin-2(1H)-yl)-2-oxoethoxy)ethyl)-4-methoxy-2,3,6-trimethylbenzenesulfonamide]
11 | 96% | 57% | COc1cc(C)c(S(=O)(=O)N(CCOCC(=O)N2CCn3cccc3C2c2cccnc2)Cc2ccccc2)c(C)c1C (stereo not shown) [Example 41, N-benzyl-4-methoxy-2,3,6-trimethyl-N-(2-(2-oxo-2-(1-(pyridin-3-yl)-3,4-dihydropyrrolo[1,2-a]pyrazin-2(1H)-yl)ethoxy)ethyl)benzenesulfonamide]
